Data on 37 compounds can be found in US8802678B2, “Carbonylated (aza) cyclohexanes as dopamine D3 receptor ligands” (Bioprojet, priority 2006, dated 2014).

By melting point is commonly meant the temperature, or range, at which the solid turns liquid.

As for `Cc1cccc(C)c1N1CCN(CC[C@H]2CC[C@H](NC(=O)CC#N)CC2)CC1` [Example 267, 2-Cyano-N-(4-{2-[4-(2,6-dimethylphenyl)piperazin-1-yl]ethyl}cyclohexyl)acetamide], the melting point came out at 143 °C.
The same measure for `N#CCC(=O)N[C@H]1CC[C@H](CCN2CCN(c3cccc(CO)c3)CC2)CC1` [Example 268, 2-Cyano-N-(4-{2-[4-(3-hydroxymethylphenyl)piperazin-1-yl]ethyl}cyclohexyl)acetamide]: 180 °C.
Then `CSc1cccc(N2CCN(CC[C@H]3CC[C@H](NC(=O)CCC#N)CC3)CC2)c1` [Example 269, 3-Cyano-N-(4-{2-[4-(3-methylsulfanylphenyl)piperazin-1-yl]ethyl}cyclohexyl)-propanamide], with 98 °C; and `COCc1cccc(N2CCN(CC[C@H]3CC[C@H](NC(=O)CC#N)CC3)CC2)c1` [Example 270, 2-Cyano-N-(4-{2-[4-(3-methoxymethylphenyl)piperazin-1-yl]ethyl}cyclohexyl)acetamide], with 117 °C; and `CCCc1cccc(N2CCN(CC[C@H]3CC[C@H](NC(=O)CC#N)CC3)CC2)c1` [Example 271, 2-Cyano-N-(4-{2-[4-(3-propylphenyl)piperazin-1-yl]ethyl}cyclohexyl)acetamide], with 132 °C.
The same measure for `N#CCC(=O)N[C@H]1CC[C@H](CCN2CCN(c3ccc(Cl)c(Cl)c3)CC2)CC1` [Example 272, 2-Cyano-N-(4-{2-[4-(3,4-dichlorophenyl)piperazin-1-yl]ethyl}cyclohexyl)acetamide]: 216 °C.
For `N#CCC(=O)N[C@H]1CC[C@H](CCN2CCN(c3ccc(C(F)(F)F)cc3)CC2)CC1` [Example 274, 2-Cyano-N-(4-{2-[4-(4-trifluoromethylphenyl)piperazin-1-yl]ethyl}cyclohexyl)acetamide], the melting point is 240 °C.
Take `N#CCC(=O)N[C@H]1CC[C@H](CCN2CCN(c3ccc(Cl)cc3)CC2)CC1` [Example 275, N-(4-{2-[4-(4-Chlorophenyl)piperazin-1-yl]ethyl}cyclohexyl)-2-cyanoacetamide]: the melting point is 247 °C.
The same measure for `N#CCC(=O)N[C@H]1CC[C@H](CCN2CCN(c3cccc(-c4ccccc4)c3)CC2)CC1` [Example 276, N-{4-[2-(4-Biphenyl-3-yl-piperazin-1-yl)ethyl]cyclohexyl}-2-cyanoacetamide]: 157 °C; for `N#CCC(=O)N[C@H]1CC[C@H](CCN2CCN(c3ccc(F)c(C(F)(F)F)c3)CC2)CC1` [Example 277, 2-Cyano-N-(4-{2-[4-(4-fluoro-3-trifluoromethylphenyl)piperazin-1-yl]ethyl}cyclohexyl)acetamide]: 181 °C.
In turn, `Cc1ccc(F)cc1N1CCN(CC[C@H]2CC[C@H](NC(=O)CCC#N)CC2)CC1` [Example 278, 3-Cyano-N-(4-{2-[4-(5-fluoro-2-methylphenyl)piperazin-1-yl]ethyl}cyclohexyl)propanamide] returned a melting point of 146 °C.
Then `N#CCC(=O)N[C@H]1CC[C@H](CCN2CCN(c3cccc(Br)c3)CC2)CC1` [Example 280, N-(4-{2-[4-(3-Bromophenyl)piperazin-1-yl]ethyl}cyclohexyl)-2-cyanoacetamide], with 168 °C; and `CC(F)(F)c1cccc(N2CCN(CC[C@H]3CC[C@H](NC(=O)CC#N)CC3)CC2)c1` [Example 281, 2-Cyano-N-[4-(2-{4-[3-(1,1-difluoroethyl)phenyl]piperazin-1-yl}ethyl)cyclohexyl]acetamide trans/cis 90/10], with 150 °C.
Regarding `CC(C)(C#N)C(=O)N[C@H]1CC[C@H](CCN2CCN(c3cccc(C(F)(F)F)c3)CC2)CC1` [Example 282, 2-Cyano-2,2-dimethyl-N-(4-{2-[4-(3-trifluoromethylphenyl)-piperazin-1-yl]ethyl}cyclohexyl)-acetamide], the melting point was 150 °C.
Then `N#CCCCC(=O)N[C@H]1CC[C@H](CCN2CCN(c3ccc(F)cc3)CC2)CC1` [Example 283, 4-Cyano-N-(4-{2-[4-(4-fluorophenyl)piperazin-1-yl]ethyl}cyclohexyl)butanamide], with 154 °C.
The same measure for `O=C(CC(F)(F)F)N[C@H]1CC[C@H](CCN2CCN(c3ccc(F)cc3)CC2)CC1` [Example 284, 3,3,3-Trifluoro-N-(4-{2-[4-(4-fluorophenyl)piperazin-1-yl]ethyl}cyclohexyl)propanamide]: 200 °C; for `CCc1ccc(N2CCN(CC[C@H]3CC[C@H](NC(=O)CC#N)CC3)CC2)cc1` [Example 285, 2-Cyano-N-(4-{2-[4-(4-ethylphenyl)piperazin-1-yl]ethyl}cyclohexyl)acetamide]: 210 °C; for `CCc1ccccc1N1CCN(CC[C@H]2CC[C@H](NC(=O)CCCC#N)CC2)CC1` [Example 286, 4-Cyano-N-(4-{2-[4-(2-ethylphenyl)piperazin-1-yl]ethyl}cyclohexyl)butanamide]: 124 °C.
`O=C(C[C@H]1CC[C@H](CCN2CCN(c3cccc(C(F)(F)F)c3)CC2)CC1)N1CCCC1` [Example 294, 1-Pyrrolidin-1-yl-2-(4-{2-[4-(3-trifluoromethylphenyl)piperazin-10yl]ethyl}cyclohexyl)ethanone] came in with a melting point of 131 °C.
`CNC(=O)C=C1CCC(CCN2CCN(c3ccccc3F)CC2)CC1` (stereo not shown) [Example 299, 2-(4-{2-[4-(2-Fluorophenyl)piperazin-1-yl]ethyl}cyclohexylidene)-N-methylacetamide] returned a melting point of 135 °C.
The same measure for `CNC(=O)C[C@H]1CC[C@H](CCN2CCN(c3ccccc3F)CC2)CC1` [Example 300, 2-(4-{2-[4-(2-Fluorophenyl)-piperazin-1-yl]ethyl}cyclohexyl)-N-methylacetamide]: 165 to 166 °C; for `O=C(C=C1CCC(CCN2CCN(c3ccccc3F)CC2)CC1)N1CCCC1` (stereo not shown) [Example 301, 2-(4-{2-[4-(2-Fluorophenyl)-piperazin-1-yl]ethyl}cyclohexylidene)-1-pyrrolidin-1-ylethanone]: 109 to 110 °C; for `O=C(C[C@H]1CC[C@H](CCN2CCN(c3ccccc3F)CC2)CC1)N1CCCC1` [Example 302, 2-(4-{2-[4-(2-Fluorophenyl)-piperazin-1-yl]ethyl}cyclohexyl)-1-pyrrolidin-1-ylethanone]: 92 to 93 °C.
`O=C(C=C1CCC(CCN2CCN(c3ccccc3F)CC2)CC1)NCC(F)(F)F` (stereo not shown) [Example 303, 2-(4-{2-[4-(2-Fluorophenyl)-piperazin-1-yl]ethyl}cyclo-hexylidene)-N-(2,2,2-trifluoroethyl)acetamide]: the melting point amounted to 125 °C.
For the compound `O=C(C[C@H]1CC[C@H](CCN2CCN(c3ccccc3F)CC2)CC1)NCC(F)(F)F` [Example 304, 2-(4-{2-[4-(2-Fluorophenyl)piperazin-1-yl]ethyl}cyclohexyl)-N-(2,2,2-trifluoroethyl)acetamide], the melting point was in the range of 158 to 159 °C.
The same measure for `CCCNC(=O)C[C@H]1CC[C@H](CCN2CCN(c3ccccc3F)CC2)CC1` [Example 306, 2-(4-{2-[4-(2-Fluorophenyl)-piperazin-1-yl]ethyl}cyclohexyl)-N-propylacetamide]: 150 °C.
The same measure for `CC(=O)CN1CCC(CCN2CCN(c3ccc(C)cc3)CC2)CC1` [Example 310, 1-{4-[2-(4-p-Tolylpiperazin-1-yl)ethyl]piperidin-1-yl}propan-2-one]: 92 °C.
Then `CC(=O)CN1CCC(CCN2CCN(c3cc(Cl)cc(Cl)c3)CC2)CC1` [Example 311, 1-(4-{2-[4-(3,5-Dichlorophenyl)-piperazin-1-yl]ethyl}piperidin-1-yl)propan-2-one], with 126 °C.
Regarding `CCCc1cccc(N2CCN(CC[C@H]3CC[C@H](NC(=O)CCCC#N)CC3)CC2)c1` [Example 312, 4-Cyano-N-(4-{2-[4-(3-propylphenyl)piperazin-1-yl]ethyl}cyclohexyl)butanamide], the melting point came out at 142 °C.
Then `Cc1c(F)cccc1N1CCN(CC[C@H]2CC[C@H](NC(=O)CC#N)CC2)CC1` [Example 313, 2-Cyano-N-(4-{2-[4-(3-fluoro-2-methylphenyl)piperazin-1-yl]ethyl}cyclohexyl)acetamide], with 174 °C.
The compound `CC(F)(F)c1cccc(N2CCN(CC[C@H]3CC[C@H](NC(=O)CCCC#N)CC3)CC2)c1` [Example 314, 4-Cyano-N-[4-(2-{4-[3-(1,1-difluoroethyl)phenyl]piperazin-1-yl}ethyl)cyclohexyl]butanamide] gave a melting point of 179 °C.
Then `N#CCC(=O)N[C@H]1CC[C@H](CCN2CCN(c3ccc4c(c3)OCO4)CC2)CC1` [Example 315, N-{4-[2-(4-Benzo[1,3]dioxol-5-ylpiperazin-1-yl)ethyl]cyclohexyl}-2-cyanoacetamide], with 226 °C; and `N#CCC(=O)N[C@H]1CC[C@H](CCN2CCN(c3ccc4c(c3)OCCO4)CC2)CC1` [Example 316, 2-Cyano-N-(4-{2-[4-(2,3-dihydrobenzo[1,4]dioxin-6-yl)piperazin-1-yl]ethyl}cyclohexyl)acetamide], with 208 °C; and `O=C(CC(F)(F)F)N[C@H]1CC[C@H](CCN2CCN(c3cccc4ncccc34)CC2)CC1` [Example 320, 3,3,3-Trifluoro-N-{4-[2-(4-quinolin-5-ylpiperazin-1-yl)ethyl]cyclohexyl}propanami-de], with 207 °C.
Then `N#CCCCC(=O)N[C@H]1CC[C@H](CCN2CCN(c3cccc4ncccc34)CC2)CC1` [Example 321, 4-Cyano-N-{4-[2-(4-quinolin-5-ylpiperazin-1-yl)ethyl]cyclohexyl}butanamide], with 155 °C; and `Cc1cc(N2CCN(CC[C@H]3CC[C@H](NC(=O)CC#N)CC3)CC2)ccc1F` [Example 322, 2-Cyano-N-(4-{2-[4-(4-fluoro-3-methylphenyl)piperazin-1-yl]ethyl}cyclohexyl)acetamide], with 192 °C.
The compound `N#CCC(=O)N[C@H]1CC[C@H](CCN2CCN(c3ccc(F)c(F)c3)CC2)CC1` [Example 325, 2-Cyano-N-(4-{2-[4-(3,4-difluorophenyl)piperazin-1-yl]ethyl}cyclohexyl)acetamide] gave a melting point of 197 °C.
